Patent US11925643B2, “Toll-like receptor 4 (TLR4) inhibitors and use thereof” (MOR RESEARCH APPLICATIONS LTD., priority 2018, dated 2024)
Non-standard residues stand in square brackets, D forms with d. Residues, ends and D or L forms follow the SMILES beside them. 1Nal = N[C@@H](Cc1cccc2ccccc12)C(=O)O

Legend:
[1] = tested on: TLR4 mRNA; test: TLR4 mRNA level by RT-qPCR in hypoxic cardiomyocytes; type: cell-based; details: hypoxic conditions
Experimental: (§1) Real-time RT-PCR experiments were performed in duplicates on an ABI 7900 instrument (Applied Biosystems™) using Taqman™ Master Mix (Applied Biosystems™). The average threshold cycles (Ct) of the duplicates were used to calculate the relative expression levels of the following genes: TLR4 (Applied Biosystems™ assay primer ID: Mm00569848_m1 Tlr4), TLR2 (assay primer ID: Mm01769726_m1 Tlr2), TNF-α (assay primer ID: Mm00443260_g1 Tnf) and IL-1β (assay primer ID: Mm00434228_m1 II1b) in vitro and in vivo following hypoxia or ischemia, respectively. The reference gene was TBP and the primer used was derived from mouse TATA-box binding protein (Applied Biosystems™ assay primer ID: Mm00446973_m1 Tbp). Amounts of TLR2, TLR4, TNF-α and IL-1β mRNAs in each sample were calculated relative to TBP mRNA, based on the corresponding Cts, as Relative Quantity (RQ) values, and normalized taking as 1 a randomly selected sample of the control group (TBP mRNA). Calculation were performed using the Applied Biosystems Analysis™ software (StepOnePlus V2.2.2). All mRNA scores are presented in arbitrary units.
Next, peptidomimetics of SEQ ID NOs:1 and 2 were tested for their ability to affect the expression of TLR4. The level of TLR4 mRNA was measured by real-time reverse transcriptase polymerase chain reaction (RT-qPCR) method as described in Materials and Methods. The possible effect of both compounds on expression levels of TLR2 mRNA was used as a negative control.

[2] = biological target: T1, TLR4 (Homo sapiens, UniProt O00206); test: FACS analysis of TLR4 expressed by macrophages exposed to LPS; type: cell-based; details: 10 μM
T1 construct: FACS analysis to test the expression of TLR4 protein by macrophages under LPS treatment; endogenous in cells; host or cells: human peripheral-blood monocytes differentiated into macrophages with M-CSF
Experimental: Flow cytometry is an analytical cell-biology technique that utilizes light to count and profile cells in a heterogenous fluid mixture. Flow cytometry analysis was used to evaluate binding of antibodies to TLR4 presenting cells. In this assay, an anti-TLR4 antibody was added to a monocytes suspension and cells which bound the antibody were visualized by a fluorescently labeled secondary antibody that bound to the anti-TLR4 antibody (Ab). Accordingly, samples were first “labeled” with the anti-TLR4 antibody, then incubated with Fluor® 488 conjugated to a secondary Ab for TLR4 (CD284) positive cells visualization.
In order to confirm the specificity of binding, and further in order to correct for non-specific or background staining, isotypes control mouse IgGs were added to cell suspensions at the same concentration as the anti-TLR4 Abs. To deduct the non-specific or background staining from the positive staining due to direct Ab binding to the antigen, the level of background staining was assessed by the use of the same fluorochrome as that used for staining the anti-TLR4 Ab.
Peripheral blood (30 ml) was obtained for the isolation of monocytes. Monocytes were purified by density gradient centrifugation as described above, and/or by adherence to plastic in RPMI 1640 medium supplemented with 10% fetal bovine serum (FBS) and antibiotics. Peripheral blood mononuclear cells (PBMCs) (10^6 cells/ml) were first seeded into 24-well plates (0.5 ml per well), after 2 hours, non-adherent cells were removed by several washes with warm PBS.
Monocytes freshly isolated either by density gradient centrifugation by adherence differentiated into macrophages in complete RPMI 1640 medium supplemented with human recombinant macrophage colony stimulating factor (100 ng/ml) for 6 days. To confirm macrophage cell lineage, direct immunostaining was performed with an antibody directed against CD11b/mac1 (Biolegend® Inc., San Diego, Calif., USA). Eighty percent (80%) of positive staining was observed by flow cytometry analysis. The proportion of TLR4 in this separated cell fraction was examined by FACS analysis using, as isotype control, mouse IgG2a IsoControl (eBioscience™ #53-4724-80), and mouse anti-human CD284 Alexa Fluor® 488 Clone FITA125 secondary Ab (Isotype IgG2a. eBioscience™ #53-9917-41), which recognizes the human TLR4 (also known as CD284) cell surface antigen. Cells were analyzed in a BC Gallios Flow Cytometer (Beckman Coulter, Indianapolis Ind., USA) and were initially gated on the basis of forward and side scatter characteristics. Kaluza Software was used to analyze the results. Results are expressed as mean fluorescence intensity (MFI) and also as normalized to control. […]

[3] = tested on: TLR2 mRNA; test: TLR2 mRNA level by RT-qPCR in hypoxic cardiomyocytes (negative control); type: cell-based; details: hypoxic conditions
Experimental: as §1
Next, peptidomimetics of SEQ ID NOs:1 and 2 were tested for their ability to affect the expression of TLR4. The level of TLR4 mRNA was measured by real-time reverse transcriptase polymerase chain reaction (RT-qPCR) method as described in Materials and Methods. […]

[4] = tested on: IκB; test: IκB protein level by Western blot in hypoxic cardiomyocytes; type: cell-based; details: normalized to β-actin
Experimental: Frozen tissue/cell cultures of liver or heart were pulverized under liquid nitrogen and placed in a homogenization buffer ([…] phosphate buffer, […] sucrose, […] EDTA, […] phenylmethylsulfonyl fluoride (PMSF), and 0.1% vol/vol tergitol, pH 7.5). Myocytes from cell cultures were homogenized in lysis buffer.
Homogenates were centrifuged at 12K rpm for 10 minutes at 4° C., the supernatant was isolated, and protein levels were visualized by immunoblotting with antibodies. Briefly, proteins (60 μg/sample) were separated using SDS-PAGE gel (12%-15%) under denaturing conditions and electro-transferred (blotted) onto nitrocellulose (Bio-Rad) for 1 hour at 100 V. Membranes were blocked with 5% nonfat milk in Tris-buffered saline with 0.1% Tween® 20 (TBST) for 1 hour at room temperature. Primary antibodies were used at a 1:200-1:1000 concentration in TBST with 5% nonfat milk overnight at 4° C. Immunodetection of β-actin/GPDH was performed as an internal control. Dye 800/680 secondary antibodies were added at a concentration of 1:15000 for 1 hour at room temperature (LI-COR® Biosciences, NE, USA). Detection was carried out with LI-CORE® Odyssey® imaging system. Quantification of signals was carried out with the Odyssey® program.
The mechanism of action of peptidomimetics of SEQ ID NOs:1, 2 and 12 was studied in vitro in cardiomyocytes, under hypoxic conditions, by determining the expression level of the IκB gene, which is regulated by activation of TLR4, and by measuring the TLR4 mRNA levels. In addition, TLR4 expression level was measured in macrophage (derived from monocytes) treated with LPS.
IκB protein level was determined by Western blot as described in Material and Methods. The amount of IκB was normalized via-a-vis the amount of β-actin serving as the loading control (the β-actin is coded by a housekeeping gene and its level is expected to remain constant under any experimental conditions).

[5] = tested on: primary cardiomyocytes; test: CK and LDH release by primary cardiomyocytes under hypoxia (MI like); type: cell-based, Rat; details: 10 μM, FIGS. 2A, 2B
Experimental: (§2) Rat hearts (1-2 days old) were removed under sterile conditions and washed three times in phosphate-buffered saline (PBS) to remove excess blood cells. The hearts were minced and then gently agitated in RBD (a solution of proteolytic enzymes (Biological Institute, Ness-Ziona, Israel) prepared from fig tree extract, and diluted 1:100 in Ca^2+- and Mg^2+-free PBS) for a few cycles of 10 min each. Dulbecco's modified Eagle's medium (Biological Industries, Kibbutz Beit Haemek, Israel) containing 10% horse serum was added to supernatant suspensions containing the dissociated cells. The mixture was centrifuged at 1400 rpm for 4 min. The supernatant phase was discarded, and the cells were re-suspended. The cell suspension was diluted to 1.0×10^6 cells/ml, unless stated otherwise, and 1.5 ml of the suspension was placed in 35-mm plastic culture dishes collagen- or gelatin-coated, or on coated cover glasses. The cultures were incubated in a humidified atmosphere of 5% CO2 and 95% air at 37° C.
Using a vacuum pump, the oxygen rich air was evacuated from an incubator containing plates with cell cultures, and a 100% Argon atmosphere was let in, while maintaining a temperature of 37° C. The cell cultures were washed with PBS twice to remove glucose from the medium. Hypoxic treated cells were cultures in PBS without glucose. These cells lasted for 180 minutes.
(§3) Primary cardiomyocytes which were obtained by method described above, were treated with exemplary decoy peptides described herein. After 30 minutes of incubation, sepsis like (LPS treatment for 6 hours), or myocardial infarction (MI) like (hypoxia for 3 hours) conditions were imposed to measure the release of CK and LDH to the medium and determine the potential cardioprotective effect of the tested decoy peptides. Cytotoxicity and level of cell damage were assessed by spectrophotometric measurement of lactate dehydrogenase (LDH) and creatine kinase (CK) activities (at 30° C.). Results are presented as CK and LDH release in arbitrary units (a.u.)
(§4) Activity of LDH and CK was determined in the cell-culture medium (25 μl) transferred into 96-well plates, using commercial L-LDH/CK kits (such as those manufactured, e.g., by Sigma-Aldrich, BioVision™ or Thermo Fisher Scientific®).
(§5) Primary cardiomyocytes were treated with peptides and peptidomimetics of SEQ ID NOs:1-7 provided at concentrations ranging from 1 μM to 20 μM. Following 30 minutes of incubation, sepsis like (LPS treatment for 6 hours) or MI like (hypoxia for 3 hours) conditions were induced to determine the potential cardioprotective effect of the tested compounds. Creatine kinase (CK) and lactate dehydrogenase (LDH) activity were assayed to determine the level of cellular damage and cell protection effect. The experimental procedure is described in Materials and Methods above. Results are presented as CK and LDH release in arbitrary units (a.u.).

[6] = tested on: primary cardiomyocytes; test: CK and LDH release by primary cardiomyocytes under LPS treatment (sepsis like); type: cell-based, Rat; details: LPS system; 10 μM
Experimental: as §2, §3, §4, §5

T1 sequence (O00206 24-839): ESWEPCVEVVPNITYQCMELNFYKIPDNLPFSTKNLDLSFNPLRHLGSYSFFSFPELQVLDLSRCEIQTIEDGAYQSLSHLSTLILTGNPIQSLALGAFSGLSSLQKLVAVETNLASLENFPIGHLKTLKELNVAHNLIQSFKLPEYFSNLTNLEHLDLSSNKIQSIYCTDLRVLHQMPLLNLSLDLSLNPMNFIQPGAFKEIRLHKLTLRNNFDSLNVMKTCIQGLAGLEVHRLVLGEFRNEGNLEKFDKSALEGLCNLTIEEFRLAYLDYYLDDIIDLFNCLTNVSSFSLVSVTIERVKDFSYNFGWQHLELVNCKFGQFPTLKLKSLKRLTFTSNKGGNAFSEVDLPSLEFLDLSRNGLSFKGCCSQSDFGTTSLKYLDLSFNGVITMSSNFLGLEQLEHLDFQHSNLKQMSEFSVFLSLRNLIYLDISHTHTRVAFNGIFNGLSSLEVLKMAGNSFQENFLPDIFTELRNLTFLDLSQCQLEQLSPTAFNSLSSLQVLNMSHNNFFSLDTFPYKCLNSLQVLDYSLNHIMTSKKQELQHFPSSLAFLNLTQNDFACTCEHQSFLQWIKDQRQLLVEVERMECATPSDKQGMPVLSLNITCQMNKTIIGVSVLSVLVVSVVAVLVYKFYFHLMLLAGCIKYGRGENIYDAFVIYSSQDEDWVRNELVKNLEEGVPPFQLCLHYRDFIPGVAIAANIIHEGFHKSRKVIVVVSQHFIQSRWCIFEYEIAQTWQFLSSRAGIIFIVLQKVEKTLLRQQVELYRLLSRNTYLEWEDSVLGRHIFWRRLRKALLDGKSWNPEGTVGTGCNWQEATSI

CC(=O)N[C@H](C(=O)N[C@@H](Cc1ccccc1)C(=O)N[C@@H](C)C(=O)N[C@@H](CCC(=O)O)C(N)=O)C(C)C [SEQ ID NO:2, (4S,7S,10S,13S)-7-benzyl-13-carbamoyl-4-isopropyl-10-methyl-2,5,8,11-tetraoxo-3,6,9,12-tetraazahexadecan-16-oic acid] (Ac-VFAE-NH2)
TLR4 mRNA expression level [1]: significantly decreased | TLR4 expression level ([2]; 30 min before LPS (100 ng/ml or 20 μg/ml), 4 hours): toward baseline levels | lowering the expression of TLR4 in the presence of LPS, compared with SEQ ID NO: 25 ([2]; low and high LPS): more effective | TLR2 mRNA expression level [3]: relatively unaffected

CC[C@H](C)[C@H](NC(C)=O)C(=O)N[C@H](C(=O)NC(C(=O)N[C@@H](C)C(N)=O)c1cccc2ccccc12)C(C)C (stereo partly drawn) [SEQ ID NO:12, (2S,3S)-2-acetamido-N-((2S)-1-((2-(((S)-1-amino-1-oxopropan-2-yl)amino)-1-(naphthalen-1-yl)-2-oxoethyl)amino)-3-methyl-1-oxobutan-2-yl)-3-methylpentanamide]
IκB level [4]: high levels

CC(=O)NC(C(=O)N[C@@H](C)C(=O)N[C@@H](CCC(=O)O)C(N)=O)c1cccc2ccccc12 (stereo partly drawn) [SEQ ID NO:11, (4S)-4-((2S)-2-(2-acetamido-2-(naphthalen-1-yl)acetamido)propanamido)-5-amino-5-oxopentanoic acid]
cell protective effect (CK and LDH release) [5]: substantial cell protective effect

CC(=O)N[C@@H](Cc1ccccc1)C(=O)NCCC(=O)N[C@@H](CCC(=O)O)C(N)=O [SEQ ID NO:9, (S)-4-(3-((S)-2-acetamido-3-phenylpropanamido)propanamido)-5-amino-5-oxopentanoic acid]
cell protective effect (CK and LDH release) [5]: substantial cell protective effect

CC(=O)N[C@@H](Cc1ccccc1)C(=O)N[C@@H](C)C(=O)N[C@@H](CCC(=O)O)C(N)=O [SEQ ID NO:8, (S)-4-((S)-2-((S)-2-acetamido-3-phenylpropanamido)propanamido)-5-amino-5-oxopentanoic acid] (Ac-Phe-Ala-Glu-NH2)
cell protective effect (CK and LDH release) [5]: substantial cell protective effect

CC(=O)N[C@H](C(=O)N[C@@H](Cc1cccc2ccccc12)C(=O)N[C@@H](C)C(=O)N[C@@H](CCC(=O)O)C(N)=O)C(C)C [SEQ ID NO:19, (4S,7S,10S,13S)-13-carbamoyl-4-isopropyl-10-methyl-7-(naphthalen-1-ylmethyl)-2,5,8,11-tetraoxo-3,6,9,12-tetraazahexadecan-16-oic acid] (Ac-V[1Nal]AE-NH2)
cellular protection / cytoprotective effect (CK and LDH release) [6]: significant cytoprotective effect

CC(C)[C@H](NC(=O)CN[C@@H](C)C(C)(C)C)C(=O)N[C@@H](Cc1ccccc1)C(=O)N[C@@H](C)C(N)=O [SEQ ID NO:17, (S)-N-((S)-1-(((S)-1-amino-1-oxopropan-2-yl)amino)-1-oxo-3-phenylpropan-2-yl)-2-(2-(((S)-3,3-dimethylbutan-2-yl)amino)acetamido)-3-methylbutanamide]
cellular protection / cytoprotective effect (CK and LDH release) [6]: significant cytoprotective effect
